Laboratory results from a melting point compilation (Tetko et al.; mined from patent text by program, amines drawn as free bases though some values may be those of a salt).

Question: Which melting point does the source give for `CCc1cn(C2CC(O)C(CNC(=O)C(C)Sc3ccc(Cl)cc3Cl)O2)c(=O)[nH]c1=O` (centres undefined) here?
Answer: The melting point was 218 to 220 °C.

Question: With `O=C1NC(=O)C(Cc2c[nH]c3ccc(Cl)cc23)N1` (centres undefined) as the compound, how does the melting point read?
Answer: The melting point was 226 to 228 °C.

Question: Which melting point does the source give for `CCOc1cncc(I)n1` here?
Answer: The melting point was 36 to 37 °C.

Question: For `CC(=O)N[C@@H](C)COc1ccc2nc(-c3ccc(OCC4CC4)c(Cl)c3)oc2c1`, which melting point is on record?
Answer: The melting point was 156 to 159 °C.

Question: Which melting point does the source give for `C=CCOc1ccccc1-c1ncc(C(=O)OCC)c(=O)[nH]1` here?
Answer: Its melting point is 118 to 120 °C.

Question: Which melting point does the source give for `CSc1ccccc1N1CCN(Cc2nc3ccccc3[nH]2)CC1` here?
Answer: The melting point was 214 to 216 °C.

Question: Which melting point does the source give for `COc1ccc(-c2cc(C3CCCCC3)sc2-c2ccc(OC)cc2)cc1` here?
Answer: Its melting point is 95 to 98 °C.

Question: With `CN1Cc2c(-c3noc(C4CC4)n3)ncn2-c2ccccc2C1=O` as the compound, how does the melting point read?
Answer: The melting point was 179 to 181 °C.

Question: For `CC(C)Oc1ccc(/C=C/C(=O)O)c(Oc2ncc(C(F)(F)F)cc2Cl)c1`, which melting point is on record?
Answer: The melting point was 138 to 140 °C.

Question: With `CCCS(=O)(=O)Nc1nc(CN2CCN(C(c3ccccc3)c3ccccc3)CC2)cs1` as the compound, how does the melting point read?
Answer: Its melting point is 165 to 167 °C.

Question: For `O=C(O)C1CCCc2c(-c3ccc(Cl)c(Cl)c3)noc2C1` (centres undefined), which melting point is on record?
Answer: Its melting point is 183 to 185 °C.

Question: For `COc1ccc(C2CC=CCC2NC(=O)c2ccc(OCC3CC3)c(OCC3CC3)c2)cc1OC` (centres undefined), which melting point is on record?
Answer: The melting point was 152 to 154 °C.

Question: With `COc1ccc(-c2cc(C(=O)Nc3ccc(CCN(C)Cc4ccc(OC)c(OC)c4)cc3)c3ccccc3n2)cc1` as the compound, how does the melting point read?
Answer: The melting point was 114 °C.

Question: For `COc1ccc(-c2[nH]nc3c2C(=O)c2c(NC(=O)Cc4ccc(N)cc4)cccc2-3)cc1`, which melting point is on record?
Answer: Its melting point is 283 °C.

Question: For `CC(=Cc1ccc(C(=O)O)cc1)[N+](=O)[O-]`, which melting point is on record?
Answer: Its melting point is 212 to 214 °C.

Question: For `CCOC(=O)C1Cc2cc(OC)c(OC)cc2C1=O` (centres undefined), which melting point is on record?
Answer: Its melting point is 140 to 141 °C.

Question: Which melting point does the source give for `COc1cc(O)c2c(=O)c(OC)c(-c3ccc(O)cc3)oc2c1` here?
Answer: Its melting point is 252 to 253 °C.

Question: For `C=CC(=O)Nc1cccc(CCCc2n[nH]c3cc(C)nn23)c1`, which melting point is on record?
Answer: The melting point was 195 to 197 °C.

Question: With `Cc1ccc2oc(=O)c(-c3cc(O)c(O)c(C#N)c3)nc2c1` as the compound, how does the melting point read?
Answer: Its melting point is 278 to 280 °C.

Question: Which melting point does the source give for `CCCCC=Cc1cc2ccccc2[nH]1` here?
Answer: The melting point was 70 to 72 °C.

Question: For `CCCC(=O)SC1CCN(C(C(=O)C2CC2)c2ccccc2F)CC1` (centres undefined), which melting point is on record?
Answer: The melting point was 97 to 98 °C.

Question: For `CC(CC#CC(C)(C)O)C1=CCC2C3=CC=C4CC(O)CCC4(C)C3CCC12C` (centres undefined), which melting point is on record?
Answer: Its melting point is 185 to 192 °C.

Question: For `S=C1CN=C(c2ccccc2Cl)c2cc(CCc3ccc(-c4ccccc4)cc3)sc2N1`, which melting point is on record?
Answer: The melting point was 187 to 189 °C.

Question: For `CC1=C(Cc2ccc(C(=O)O)cc2)C(=O)C2C=CC=CC2C1=O` (centres undefined), which melting point is on record?
Answer: The melting point was 206 to 208 °C.

Question: Which melting point does the source give for `CCOP(=O)(CC(Nc1cccnc1)c1cc(C)c(O)c(OC)c1)OCC` (centres undefined) here?
Answer: Its melting point is 156 to 158 °C.

Question: Which melting point does the source give for `O=C(CCN1CCOCC1)Nc1cc(-c2nnc(SCc3cccc(F)c3)o2)ccn1` here?
Answer: The melting point was 149 to 150 °C.

Question: With `CCOC(=O)C1Cc2ccccc2N1C(=O)C(C)Br` (centres undefined) as the compound, how does the melting point read?
Answer: The melting point was 101 to 103 °C.

Question: For `CN1C(c2nnc(C3CCCCC3)o2)=C(OC(=O)c2ccccc2)c2ccccc2S1(=O)=O`, which melting point is on record?
Answer: The melting point was 157 °C.

Question: Which melting point does the source give for `O=C(CI)c1cc(OCc2ccccc2)c(OCc2ccccc2)c(OCc2ccccc2)c1` here?
Answer: The melting point was 110 to 112 °C.

Question: Which melting point does the source give for `COc1cc(-n2cnc3cc(-c4ccc(Cl)cc4)sc3c2=O)ccc1OC[C@H](O)C1CC1` here?
Answer: Its melting point is 178 to 179 °C.

Question: Which melting point does the source give for `CCn1nc(OCCCCc2ccc(OC(C)C)cc2Oc2ncc(C(F)(F)F)cc2Cl)cc1CCC(=O)O` here?
Answer: The melting point was 129 to 130 °C.

Question: For `CC(C)(C)OC(=O)NNc1ccc(N)cc1`, which melting point is on record?
Answer: The melting point was 128 °C.

Question: For `O=C(O)c1ccc2c(c1)CCc1ccc(C(=O)O)cc1S2(=O)=O`, which melting point is on record?
Answer: The melting point was 350 to 352 °C.

Question: Which melting point does the source give for `CN1CCC(C2(O)c3ccccc3Sc3cc(F)ccc32)CC1` (centres undefined) here?
Answer: Its melting point is 120 to 130 °C.

Question: For `O=C1Nc2cc(NC(=O)c3cccn(-c4ccccc4)c3=O)ccc2/C1=C/c1ccc[nH]1`, which melting point is on record?
Answer: The melting point was > 300 °C.

Question: Which melting point does the source give for `Cn1cncc1C(O)(c1ccc(C=O)cc1)c1ccc2c(c1)c(-c1cccc(Cl)c1)cc(=O)n2C` (centres undefined) here?
Answer: Its melting point is 208 °C.

Question: For `NC(=O)c1cncn1C(c1ccccc1)c1ccccc1`, which melting point is on record?
Answer: The melting point was 153 °C.

Question: With `COCCOc1ccc(/C=C(\C)C(=O)NS(=O)(=O)c2cccc(Cl)c2)c(Oc2ncc(C(F)(F)F)cc2Cl)c1` as the compound, how does the melting point read?
Answer: Its melting point is 89 to 92 °C.

Question: With `O=S1(=O)c2cccc3cccc(c23)N1CCN1CCC(=Cc2cc3cc(F)ccc3[nH]2)CC1` as the compound, how does the melting point read?
Answer: Its melting point is 160 °C.

Question: For `Cn1c(C2CC2)nc2cc(C(=O)NC3CC3)c(NC(=O)c3cc(C(F)(F)F)nn3-c3ncccc3Cl)c(Cl)c21`, which melting point is on record?
Answer: The melting point was 233 to 235 °C.

Question: For `CC(C)Nc1c(-c2ccc(C#N)cc2)c(Cl)nc2ncnn12`, which melting point is on record?
Answer: Its melting point is 190 °C.

Question: For `CN1C(=O)N(c2ccccc2Br)Cc2cnc(Nc3ccc4c(c3)OCC(CO)O4)nc21` (centres undefined), which melting point is on record?
Answer: Its melting point is 156 to 158 °C.

Question: With `O=c1ccn(-c2cccc(C(F)(F)F)c2)nc1-c1ncnn1-c1ccccc1` as the compound, how does the melting point read?
Answer: Its melting point is 167 to 168 °C.

Question: With `COC(=N)NC(=O)CCl` as the compound, how does the melting point read?
Answer: Its melting point is 123 °C.

Question: With `CCn1c2c(c3cc(OC)c(OC)cc3c1=O)C(=O)c1cc3c(cc1-2)OCO3` as the compound, how does the melting point read?
Answer: The melting point was 291 to 293 °C.

Question: Which melting point does the source give for `CC1Cc2c(c3cccnc3n(-c3ccccc3)c2=O)O1` (centres undefined) here?
Answer: Its melting point is 223 to 224 °C.

Question: With `COc1ccc(Cc2nc3c(N)nc4ccccc4c3n2CCCCNC(=O)c2ccc3ccccc3n2)cc1` as the compound, how does the melting point read?
Answer: Its melting point is 95.1 to 97.4 °C.

Question: With `Oc1ccc(O)c(F)c1` as the compound, how does the melting point read?
Answer: Its melting point is 33 to 35 °C.

Question: With `CCN1C(OC)=NC(C)=NS1(=O)=O` as the compound, how does the melting point read?
Answer: Its melting point is 50 to 53 °C.
